# Measurements from PubChem BioAssay (NCI).
#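 Dose response: 5 concentrations. Exposure: 48 h. Format: 96-well plates. Endpoint: linear interpolation; highest concentration if not reached. TGI denotes the concentration required for complete inhibition of growth.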
# Key:
# Assay in all cases: NCI-60 cell line screen, 48 h
# UACC-257 melanoma = test system: UACC-257 melanoma
# OVCAR-4 ovarian = test system: OVCAR-4 ovarian
# SK-MEL-5 melanoma = test system: SK-MEL-5 melanoma
# IGROV1 ovarian = test system: IGROV1 ovarian
# HOP-62 NSCLC = test system: HOP-62 NSCLC
# CCRF-CEM leukemia = test system: CCRF-CEM leukemia
# NCI-H460 lung = test system: NCI-H460 lung
# XF 498 CNS = test system: XF 498 CNS
# NCI-H23 lung = test system: NCI-H23 lung
# HCT-116 colon = test system: HCT-116 colon
# DMS 114 small cell lung = test system: DMS 114 small cell lung
# 786-0 renal = test system: 786-0 renal
# U251 CNS = test system: U251 CNS
# A549 NSCLC = test system: A549 NSCLC
# KM12 colon = test system: KM12 colon
# HL-60(TB) leukemia = test system: HL-60(TB) leukemia
# K-562 leukemia = test system: K-562 leukemia
# COLO 205 colon = test system: COLO 205 colon
# TK-10 renal = test system: TK-10 renal
# M19-MEL melanoma = test system: M19-MEL melanoma
# SNB-19 CNS = test system: SNB-19 CNS
# DLD-1 colon = test system: DLD-1 colon
# CAKI-1 renal = test system: CAKI-1 renal
# LXFL 529 NSCLC = test system: LXFL 529 NSCLC
# SNB-78 CNS = test system: SNB-78 CNS
# SW-620 colon = test system: SW-620 colon
# KM20L2 colon = test system: KM20L2 colon
# SN12C renal = test system: SN12C renal
# SF-268 CNS = test system: SF-268 CNS
# EKVX NSCLC = test system: EKVX NSCLC
# RXF 393 renal = test system: RXF 393 renal
# HOP-18 NSCLC = test system: HOP-18 NSCLC
# MOLT-4 leukemia = test system: MOLT-4 leukemia
# HCC-2998 colon = test system: HCC-2998 colon
# NCI-H226 lung = test system: NCI-H226 lung
# OVCAR-8 ovarian = test system: OVCAR-8 ovarian
# A498 renal = test system: A498 renal
# UACC-62 melanoma = test system: UACC-62 melanoma
# SK-OV-3 ovarian = test system: SK-OV-3 ovarian
# M14 melanoma = test system: M14 melanoma
# NCI-H522 lung = test system: NCI-H522 lung
# MALME-3M melanoma = test system: MALME-3M melanoma
# UO-31 renal = test system: UO-31 renal
# RXF-631 renal = test system: RXF-631 renal
# SK-MEL-2 melanoma = test system: SK-MEL-2 melanoma
# HCT-15 colon = test system: HCT-15 colon
# LOX IMVI melanoma = test system: LOX IMVI melanoma
# SF-295 CNS = test system: SF-295 CNS
# SNB-75 CNS = test system: SNB-75 CNS
# DMS 273 small cell lung = test system: DMS 273 small cell lung
# HT29 colon = test system: HT29 colon
# SF-539 CNS = test system: SF-539 CNS
# RPMI-8226 leukemia = test system: RPMI-8226 leukemia
# OVCAR-3 ovarian = test system: OVCAR-3 ovarian
# SK-MEL-28 melanoma = test system: SK-MEL-28 melanoma
# ACHN renal = test system: ACHN renal
smiles,measurement,setting,value
N#CC1=C(O)NC(O)=C(C#N)C1c1ccc(C2C(C#N)=C(O)NC(O)=C2C#N)cc1,TGI,UACC-257 melanoma,> 100 µM
same,TGI,OVCAR-4 ovarian,> 100 µM
same,TGI,SK-MEL-5 melanoma,> 100 µM
same,TGI,IGROV1 ovarian,> 100 µM
same,TGI,HOP-62 NSCLC,> 100 µM
same,TGI,CCRF-CEM leukemia,> 100 µM
same,TGI,NCI-H460 lung,> 100 µM
same,TGI,XF 498 CNS,> 100 µM
same,TGI,NCI-H23 lung,> 100 µM
same,TGI,HCT-116 colon,> 100 µM
same,TGI,DMS 114 small cell lung,> 100 µM
same,TGI,786-0 renal,> 100 µM
same,TGI,U251 CNS,> 100 µM
same,TGI,A549 NSCLC,> 100 µM
same,TGI,KM12 colon,> 100 µM
same,TGI,HL-60(TB) leukemia,75.3 µM
same,TGI,K-562 leukemia,> 100 µM
same,TGI,COLO 205 colon,63.1 µM
same,TGI,TK-10 renal,> 100 µM
same,TGI,M19-MEL melanoma,> 100 µM
same,TGI,SNB-19 CNS,> 100 µM
same,TGI,DLD-1 colon,> 100 µM
same,TGI,CAKI-1 renal,> 100 µM
same,TGI,LXFL 529 NSCLC,> 100 µM
same,TGI,SNB-78 CNS,> 100 µM
same,TGI,SW-620 colon,> 100 µM
same,TGI,KM20L2 colon,> 100 µM
same,TGI,SN12C renal,> 100 µM
same,TGI,SF-268 CNS,> 100 µM
same,TGI,EKVX NSCLC,> 100 µM
same,TGI,RXF 393 renal,> 100 µM
same,TGI,HOP-18 NSCLC,> 100 µM
same,TGI,MOLT-4 leukemia,> 100 µM
same,TGI,HCC-2998 colon,> 100 µM
same,TGI,NCI-H226 lung,> 100 µM
same,TGI,OVCAR-8 ovarian,> 100 µM
same,TGI,A498 renal,> 100 µM
same,TGI,UACC-62 melanoma,> 100 µM
same,TGI,SK-OV-3 ovarian,> 100 µM
same,TGI,M14 melanoma,> 100 µM
same,TGI,NCI-H522 lung,43.6 µM
same,TGI,MALME-3M melanoma,> 100 µM
same,TGI,UO-31 renal,> 100 µM
same,TGI,RXF-631 renal,> 100 µM
same,TGI,SK-MEL-2 melanoma,> 100 µM
same,TGI,HCT-15 colon,> 100 µM
same,TGI,LOX IMVI melanoma,> 100 µM
same,TGI,SF-295 CNS,> 100 µM
same,TGI,SNB-75 CNS,> 100 µM
same,TGI,DMS 273 small cell lung,> 100 µM
same,TGI,HT29 colon,> 100 µM
same,TGI,SF-539 CNS,> 100 µM
same,TGI,RPMI-8226 leukemia,> 100 µM
same,TGI,OVCAR-3 ovarian,> 100 µM
same,TGI,SK-MEL-28 melanoma,> 100 µM
same,TGI,ACHN renal,> 100 µM
